Patent publication US20050245541A1, “Methods for treating alcoholism” (priority 2004, published 2005)
Entries after “also recorded” stand apart in the source; their conditions may differ.

Tests used:
[1] = test system: rat model of alcohol self-administration; test: Ethanol self-administration (operant lever press) in trained rats; assay type: in vivo, rat (male Wistar)
Protocol: FIG. 1B is a bar graph showing the amount of ethanol (EtOH) consumed in g/kg at various doses of naltrexone. Based on the number of lever press responses following a dose of naltrexone (FIG. 1A), the corresponding amount of absolute ethanol consumed (g/kg) was calculated. To calculate the amount of absolute ethanol consumed, divide the number of lever presses by 2 to obtain the number of earned reinforcements. From this number, the total volume of the alcohol “cocktail” (10% EtOH in 0.04% saccharine solution) consumed was obtained. The grams of absolute EtOH consumed=the total “cocktail” volume consumed×10% EtOH×0.793 g EtOH/mL. The amount of ethanol (g) divided by the animal's weight (kg) gives the amount of absolute ethanol consumed in g/kg.
(§1) Male Wistar rats (starting weight of 200±30 grams; Charles River Laboratories, Mass.) were individually housed with free access to food and water. The vivarium was maintained within the temperature and relative humidity range specified within the Guide for Care and Use of Laboratory Animals (NIH Publication No. 86-23, revised 1985). These conditions were recorded once daily throughout the study. The vivarium was on a 12 hour light/dark schedule. All animal studies were reviewed and approved by the Alkermes' IACUC (protocol #04-2A).
Animals were trained daily in an operant chamber to press a lever to receive access to an ethanol cocktail as a reinforcer using a saccharin fading procedure. […] The final ethanol cocktail contained 10% ethanol in 0.04% saccharine. Each session lasted 30 minutes, during which the rat could press the lever twice to gain access to 0.1 mL of the ethanol cocktail. The operant chamber (Coulbourne Instruments, Allentown, Pa.) is a computer-controlled automated system which recorded the number of lever presses completed by a rat. At the end of the training period (6-8 weeks), rats which consistently drank a sufficient quantity of ethanol to produce a pharmacological effect (minimum intake of 0.6 g/kg/hour) were selected to participate in the drug studies. These trained rats were used repeatedly throughout these studies to control for intra-subject variability. All drugs were administered acutely with a minimum of a 2 day drug washout period.
Naltrexone was prepared daily in 0.9% saline and administered subcutaneously (SC). The dopamine D2 partial agonist aripiprazole was suspended in 3% carboxymethyl cellulose; a total volume of 1 mL/kg of this suspension was delivered orally (PO) to the rat using a gavage tube. See Table 1 for source and lot numbers of the drugs tested.
The ability of naltrexone to reduce ethanol drinking (i.e., decrease the number of lever presses) was assessed in this animal model of self administration of ethanol. Thirty minutes after the administration of naltrexone (0-6 mg/kg, SC), the animals were placed in the operant chamber and allowed to lever press for the 10% ethanol cocktail. The total number of lever presses was recorded over the 30 minute test session. The rats were repeatedly dosed with naltrexone to generate a dose-response curve for each individual animal.
The dopamine D2 partial agonist aripiprazole was coadministered with naltrexone to determine if it affected naltrexone's ability to decease ethanol drinking. The dose of naltrexone used in this series of studies was the ED50 (that is, the dose of naltrexone that produced a 50% decrease in lever responses for ethanol as determined from the dose-response study). This dose allows one to determine if the coadministered drugs impaired or enhanced naltrexone's effect on ethanol drinking. Aripiprazole was administered orally 30 minutes prior to a naltrexone injection (SC) (i.e., 60 minutes prior to the beginning of the ethanol drinking test session). The number of lever presses for the ethanol cocktail was recorded at the end of the 30 minute session.

[2] = test system: audiogenic-induced convulsions in mice exhibiting symptoms of alcohol withdrawal; test: Audiogenic-induced convulsions in mouse model of alcohol withdrawal; assay type: in vivo, mouse (male C57BL/6); conditions: for Withdrawal Rating (mean ± sem), behavioral response scale of 1-4: mouse
Protocol: as §1, with “C57BL/6 mice” for “Wistar rats”, “15-18” for “200±30”, “were” for “were individually”, “housed in groups of 4 on a ventilated rack” for “housed”, “#04-8A).” for “#04-2A).”
Persistent high alcohol levels in blood and brain are required to develop withdrawal symptoms following termination of alcohol availability. […] Alcohol is provided in a nutritionally balanced liquid diet. This diet becomes the animal's sole source of food and water. While the experimenter controls the duration of the alcohol exposure, the animal determines the dose and pattern of consumption.
After a 3-5 day acclimation period, the mice were individually identified (tail mark with permanent marker) and weighed. The normal rodent chow and water was replaced with a nutritionally complete control liquid diet (Bio-Serv, Lieber-DeCarli diet) for a 5-7 day habituation period. Acquisition of EtOH drinking in mice involved a gradually escalating ethanol concentration procedure. Ethanol treated animals received an EtOH liquid diet containing 1.5% EtOH for 5-7 days. The EtOH concentration was increased every 5-7 days to a final concentration of 6.7%. The liquid diet was administered in a screw capped graduated 100 mL liquid feeding tube mounted inside the cage. The volume of remaining diet was measured and the diet changed daily. The mice were observed daily and weighed every week to assure adequate EtOH diet intake.
Development of alcohol withdrawal symptoms requires a cycle of alcohol/no alcohol. The animals were given a period of 14 days of the EtOH diet (6.7%), 2 days of control diet (balanced isocalorically with maltose dextrin replacing the EtOH) and 5-6 days of the EtOH diet.
One of the hallmark symptoms of alcohol withdrawal in mice is the occurrence of convulsions. These can occur spontaneously, from handling the animal, from a sudden loud sound (audiogenic) or from subthreshold doses of chemical convulsants. For this series of studies, the occurrence of audiogenic-induced convulsions was used as a measure of alcohol withdrawal. […]
Mice from each cage were randomly assigned to one of three groups, vehicle+saline, aripiprazole (10 mg/kg, PO)+saline, or aripiprazole (10 mg/kg, PO)+naltrexone (3 mg/kg, IP). […] Each mouse's behavior in response to the bell was observed by two investigators and the agreed upon results were recorded.

[3] = test system: rat model of alcohol self-administration; test: Ethanol self-administration (operant lever press) in trained rats; assay type: in vivo, rat (male Wistar); conditions: naltrexone 0.5 mg/kg sc, 0.1% saccharine solution substituted for ethanol cocktail

Structure (SMILES)	Number of Lever Presses (mean ± sem) ([1]; aripiprazole 0.1 mg/kg PO + naltrexone 0.1 mg/kg SC, rat)	Number of Lever Presses (mean ± sem) ([1]; aripiprazole 1.0 mg/kg PO + naltrexone 0.1 mg/kg SC, rat)	Number of Lever Presses (mean ± sem) ([1]; aripiprazole 10.0 mg/kg PO + naltrexone 0.1 mg/kg SC, rat)	Number of Lever Presses (mean ± sem) ([1]; aripiprazole 10.0 mg/kg PO, no naltrexone, rat)	Ethanol-motivated lever presses, combination of naltrexone and aripiprazole versus naltrexone alone ([1]; aripiprazole 0.1-10 mg/kg PO + naltrexone SC, rat)	Withdrawal Rating (mean ± sem), behavioral response scale of 1-4 ([2]; aripiprazole 10 mg/kg PO + naltrexone 3 mg/kg)	Withdrawal Rating (mean ± sem), behavioral response scale of 1-4 ([2]; aripiprazole 10 mg/kg PO + saline)	Anticonvulsant effect on the audiogenic convulsion test ([2]; aripiprazole 10 mg/kg PO with or without naltrexone, p=0.004)	Specificity of decrease in drinking: lever pressing for saccharine versus ethanol cocktail [3]	Number of Lever Presses (mean ± sem) ([1]; aripiprazole 0.0 mg/kg PO (vehicle) + naltrexone 0.1 mg/kg SC, rat)	Decrease in lever presses versus baseline and vehicle control (significance) ([1]; lowest dose of naltrexone tested, 0.05 mg/kg)	Decrease in the number of lever presses compared to baseline ([1]; naltrexone alone group of the aripiprazole interaction study (naltrexone 0.1 mg/kg SC per Table 4)) [%]	Difference between naltrexone and non-naltrexone groups on the audiogenic convulsion test ([2]; naltrexone 3 mg/kg coadministered with aripiprazole 10 mg/kg PO)
O=C1CCc2ccc(OCCCCN3CCN(c4cccc(Cl)c4Cl)CC3)cc2N1 [Aripiprazole, 7-{4-[4-(2,3-dichlorophenyl)-1-piperazinyl]-butoxy}-3-,4-dihydro carbostyril]	42 ± 11	45 ± 8	37 ± 7	118 ± 26	no statistical difference	1.0 ± 0.0	1.0 ± 0.0	significant drug effect (anticonvulsant effect)					
O=C1CC[C@@]2(O)[C@H]3Cc4ccc(O)c5c4[C@@]2(CCN3CC2CC2)[C@H]1O5 [Naltrexone]									to the same degree as under the non-drug baseline condition; also recorded: selective for decreasing ethanol drinking in rats (but not saccharine drinking)	62 ± 13	no significant decrease	47.54	no statistical differences
